What follows are molecules tested against Mcl-1 protein (Homo sapiens, UniProt Q07820) (assay: Inhibition of Mcl-1 by the fluorescence polarisation technique). Details: fluorescence polarisation test; Fluorescein labelled ligand 1 nM, Mcl-1 protein 5 nM, ~2 hours at r.t.; read-out: IC50 (M) Mcl-1 FP.
Type: binding
Protocol: The relative binding potency of each compound was determined via Fluorescence Polarisation (FP). The method utilised a Fluorescein labelled ligand (Fluorescein-βAla-Ahx-A-REIGAQLRRMADDLNAQY-OH; mw 2,765) which binds to the Mcl-1 protein (such that Mcl-1 corresponds to the UniProtKB® primary accession number: Q07820) leading to an increased anisotropy measured in milli-polarisation (mP) units using a reader. The addition of a compound which binds competitively to the same site as the ligand will result in a greater proportion of unbound ligand in the system indicated by a decrease in mP units.
An 11 point serial dilution of each compound was prepared in DMSO and 2 μl transferred into flat bottomed, low binding, 384-well plate (final DMSO concentration 5%). 38 μl of buffer (10 mM 4-(2-hydroxyethyl)-1-piperazineethanesulfonic acid [HEPES], 150 mM NaCl, 0.05% Tween 20, pH 7.4), containing the Fluorescein labelled ligand (final concentration 1 nM) and Mcl-1 protein (final concentration 5 nM) was then added.
Assay plates were incubated ˜2 hours at r.t. before FP was measured on a Biomek Synergy2 reader (Ex. 528 nm, Em. 640 nm, Cut off 510 nm) and mP units calculated. The binding of increasing doses of test compound was expressed as a percentage reduction in mP compared to a window established between ‘5% DMSO only’ and ‘100% inhibition’ controls. 11-point dose response curves were plotted with XL-Fit software using a 4-Parameter Logistic Model (Sigmoidal Dose-Response Model) and the inhibitory concentrations that gave a 50% reduction in mP (IC50) were determined.

Mcl-1 protein, sequence (Q07820 whole entry): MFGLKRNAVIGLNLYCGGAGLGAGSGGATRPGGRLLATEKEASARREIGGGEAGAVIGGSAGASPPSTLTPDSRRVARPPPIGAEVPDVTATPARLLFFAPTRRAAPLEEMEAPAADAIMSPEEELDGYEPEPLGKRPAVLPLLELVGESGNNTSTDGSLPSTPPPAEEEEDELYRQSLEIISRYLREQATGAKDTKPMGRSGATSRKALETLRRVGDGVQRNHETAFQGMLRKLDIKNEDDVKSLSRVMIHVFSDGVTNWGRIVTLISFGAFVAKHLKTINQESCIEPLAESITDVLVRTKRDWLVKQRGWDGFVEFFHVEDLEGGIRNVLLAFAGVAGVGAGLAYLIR

| Molecule | IC50 |
| --- | --- |
| Cc1c(-c2c(-c3ccc(F)cc3)sc3ncnc(OC(Cc4ccccc4OCc4ccnc(-c5ccc(COC6(C)OC7OC(CO)C(O)C(O)C7O6)cc5)n4)C(=O)O)c23)ccc(OCCN2CCN(C)CC2)c1Cl [Example 22, 1,2-O-[(1R)-1-({4-[4-({2-[(2R)-2-carboxy-2-{[(5Sa)-5-{3-chloro-2-methyl-4-[2-(4-methylpiperazin-1-yl)ethoxy]phenyl}-6-(4-fluorophenyl)thieno[2,3-d]pyrimidin-4-yl]oxy}ethyl]phenoxy}methyl)pyrimidin-2-yl]benzyl}oxy)ethylidene]-β-D-mannopyranose] | 5.5e-09 M |
| CCOC(=O)OC(C)OC(=O)C(Cc1ccccc1OCc1ccnc(-c2cccc(OC(COC)COC)c2)n1)Oc1ncnc2sc(-c3ccc(F)cc3)c(-c3ccc(OCCN4CCN(C)CC4)c(Cl)c3C)c12 [Example 69, 1-[(ethoxycarbonyl)oxy]ethyl (2R)-2-{[(5Sa)-5-{3-chloro-2-methyl-4-[2-(4-methylpiperazin-1-yl)ethoxy]phenyl}-6-(4-fluorophenyl)thieno[2,3-d]pyrimidin-4-yl]oxy}-3-{2-[(2-{3-[(1,3-dimethoxypropan-2-yl)oxy]phenyl}pyrimidin-4-yl)methoxy]phenyl}propanoate] | 7.6e-08 M |
| Cc1c(-c2c(-c3ccc(F)cc3)sc3ncnc(OC(Cc4ccccc4OCc4ccnc(-c5ccc(OCC6COC(C)(C)O6)cc5)n4)C(=O)O)c23)ccc(OCCN2CCN(C)CC2)c1Cl [Example 55, (2R)-2-{[(5Sa)-5-{3-chloro-2-methyl-4-[2-(4-methylpiperazin-1-yl)ethoxy]phenyl}-6-(4-fluorophenyl)thieno[2,3-d]pyrimidin-4-yl]oxy}-3-{2-[(2-{4-[(2,2-dimethyl-1,3-dioxolan-4-yl)methoxy]phenyl}pyrimidin-4-yl)methoxy]phenyl}propanoic acid] | 6.35e-09 M |
| Cc1c(-c2c(-c3ccc(F)cc3)sc3ncnc(OC(Cc4ccccc4OCc4ccnc(-c5cncc(CO)c5)n4)C(=O)O)c23)ccc(OCCN2CCN(C)CC2)c1Cl [Example 79, (2R)-2-{[(5Sa)-5-{3-chloro-2-methyl-4-[2-(4-methylpiperazin-1-yl)ethoxy]phenyl}-6-(4-fluorophenyl)thieno[2,3-d]pyrimidin-4-yl]oxy}-3-[2-({2-[5-(hydroxymethyl)pyridin-3-yl]pyrimidin-4-yl}methoxy)phenyl]propanoic acid] | 7.6e-09 M |
| (2R)-2-{[(5Sa)-5-{2,3-dimethyl-4-[2-(4-methylpiperazin-1-yl)ethoxy]phenyl}-6-(4-fluorophenyl)thieno[2,3-d]pyrimidin-4-yl]oxy}-3-{2-[(2-{3-[({[2-(piperidin-1-yl)ethyl]carbamoyl}oxy)methyl]phenyl}pyrimidin-4-yl)methoxy]phenyl}propanoic acid [Example 50] | 6.6e-09 M |
| Cc1c(-c2c(-c3ccc(F)cc3)sc3ncnc(OC(Cc4ccccc4OCc4ccnc(-c5ccc(OCCN6CCOCC6)cc5)n4)C(=O)O)c23)ccc(OCCN2CCN(C)CC2)c1Cl [Example 56, (2R)-2-{[(5Sa)-5-{3-chloro-2-methyl-4-[2-(4-methylpiperazin-1-yl)ethoxy]phenyl}-6-(4-fluorophenyl)thieno[2,3-d]pyrimidin-4-yl]oxy}-3-{2-[(2-{4-[2-(morpholin-4-yl)ethoxy]phenyl}pyrimidin-4-yl)methoxy]phenyl}propanoic acid] | 4.75e-09 M |
| Cc1c(-c2c(-c3ccc(F)cc3)sc3ncnc(OC(Cc4ccccc4OCc4ccnc(-c5cnc(CO)nc5)n4)C(=O)O)c23)ccc(OCCN2CCN(C)CC2)c1Cl [Example 82, (2R)-2-{[(5Sa)-5-{3-chloro-2-methyl-4-[2-(4-methylpiperazin-1-yl)ethoxy]phenyl}-6-(4-fluorophenyl)thieno[2,3-d]pyrimidin-4-yl]oxy}-3-(2-{[2′-(hydroxymethyl)-2,5′-bipyrimidin-4-yl]methoxy}phenyl)propanoic acid] | 7.7e-09 M |

The remaining molecules from weak to strong by IC50, led by results:

| IC50 | Molecule |
| --- | --- |
| 4.65e-09 M | Cc1c(-c2c(-c3ccc(F)cc3)sc3ncnc(OC(Cc4ccccc4OCc4ccnc(-c5cccc(OCCN(CCO)CCO)c5)n4)C(=O)O)c23)ccc(OCCN2CCN(C)CC2)c1Cl [Example 49, (2R)-3-(2-{[2-(3-{2-[bis(2-hydroxyethyl)amino]ethoxy}phenyl)pyrimidin-4-yl]methoxy}phenyl)-2-{[(5Sa)-5-{3-chloro-2-methyl-4-[2-(4-methylpiperazin-1-yl)ethoxy]phenyl}-6-(4-fluorophenyl)thieno[2,3-d]pyrimidin-4-yl]oxy}propanoic acid] |
| 4.65e-09 M | Cc1c(-c2c(-c3ccc(F)cc3)sc3ncnc(OC(Cc4ccccc4OCc4ccnc(-c5ccc(OCCN(CCO)CCO)cc5)n4)C(=O)O)c23)ccc(OCCN2CCN(C)CC2)c1Cl [Example 53, (2R)-3-(2-{[2-(4-{2-[bis(2-hydroxyethyl)amino]ethoxy}phenyl)pyrimidin-4-yl]methoxy}phenyl)-2-{[(5Sa)-5-{3-chloro-2-methyl-4-[2-(4-methylpiperazin-1-yl)ethoxy]phenyl}-6-(4-fluorophenyl)thieno[2,3-d]pyrimidin-4-yl]oxy}propanoic acid] |
| 4.6e-09 M | Cc1c(-c2c(-c3ccc(F)cc3)sc3ncnc(OC(Cc4ccccc4OCc4ccnc(-c5ccc(OCCOCCOCCO)cc5)n4)C(=O)O)c23)ccc(OCCN2CCN(C)CC2)c1Cl [Example 54, (2R)-2-{[(5Sa)-5-{3-chloro-2-methyl-4-[2-(4-methylpiperazin-1-yl)ethoxy]phenyl}-6-(4-fluorophenyl)thieno[2,3-d]pyrimidin-4-yl]oxy}-3-(2-{[2-(4-{2-[2-(2-hydroxyethoxy)ethoxy]ethoxy}phenyl)pyrimidin-4-yl]methoxy}phenyl)propanoic acid] |
| 4.15e-09 M | Cc1c(-c2c(-c3ccc(F)cc3)sc3ncnc(OC(Cc4ccccc4OCc4ccnc(-c5cccc(OCCN6CCOCC6)c5)n4)C(=O)O)c23)ccc(OCCN2CCN(C)CC2)c1Cl [Example 51, (2R)-2-{[(5Sa)-5-{3-chloro-2-methyl-4-[2-(4-methylpiperazin-1-yl)ethoxy]phenyl}-6-(4-fluorophenyl)thieno[2,3-d]pyrimidin-4-yl]oxy}-3-{2-[(2-{3-[2-(morpholin-4-yl)ethoxy]phenyl}pyrimidin-4-yl)methoxy]phenyl}propanoic acid] |
| 3.85e-09 M | COCCOCCOCCOc1cccc(-c2nccc(COc3ccccc3CC(Oc3ncnc4sc(-c5ccc(F)cc5)c(-c5ccc(OCCN6CCN(C)CC6)c(Cl)c5C)c34)C(=O)O)n2)c1 [Example 48, (2R)-2-{[(5Sa)-5-{3-chloro-2-methyl-4-[2-(4-methylpiperazin-1-yl)ethoxy]phenyl}-6-(4-fluorophenyl)thieno[2,3-d]pyrimidin-4-yl]oxy}-3-(2-{[2-(3-{2-[2-(2-methoxyethoxy)ethoxy]ethoxy}phenyl)pyrimidin-4-yl]methoxy}phenyl)propanoic acid] |
| 3.7e-09 M | Cc1c(-c2c(-c3ccc(F)cc3)sc3ncnc(OC(Cc4ccccc4OCc4ccnc(-c5cccc(OCCN(C)C)c5)n4)C(=O)O)c23)ccc(OCCN2CCN(C)CC2)c1Cl [Example 52, (2R)-2-{[(5Sa)-5-{3-chloro-2-methyl-4-[2-(4-methylpiperazin-1-yl)ethoxy]phenyl}-6-(4-fluorophenyl)thieno[2,3-d]pyrimidin-4-yl]oxy}-3-{2-[(2-{3-[2-(dimethylamino)ethoxy]phenyl}pyrimidin-4-yl)methoxy]phenyl}propanoic acid] |
| 2.55e-09 M | Cc1c(-c2c(-c3ccc(F)cc3)sc3ncnc(OC(Cc4ccccc4OCc4ccnc(-c5cccc(COC(=O)N6CCOCCOCCOCCOCCOCC6)c5)n4)C(=O)O)c23)ccc(OCCN2CCN(C)CC2)c1Cl [Example 46, (2R)-2-{[(5Sa)-5-{3-chloro-2-methyl-4-[2-(4-methylpiperazin-1-yl)ethoxy]phenyl}-6-(4-fluorophenyl)thieno[2,3-d]pyrimidin-4-yl]oxy}-3-(2-{[2-(3-{[(1,4,7,10,13-pentaoxa-16-azacyclooctadecan-16-ylcarbonyl)oxy]methyl}phenyl)pyrimidin-4-yl]methoxy}phenyl)propanoic acid] |
| 2.2e-09 M | Cc1c(-c2c(-c3ccc(F)cc3)sc3ncnc(OC(Cc4ccccc4OCc4ccnc(-c5ccccc5COCC(O)CO)n4)C(=O)O)c23)ccc(OCCN2CCN(C)CC2)c1Cl [Example 27, (2R)-2-{[(5Sa)-5-{3-chloro-2-methyl-4-[2-(4-methylpiperazin-1-yl)ethoxy]phenyl}-6-(4-fluorophenyl)thieno[2,3-d]pyrimidin-4-yl]oxy}-3-{2-[(2-{2-[(2,3-dihydroxypropoxy)methyl]phenyl}pyrimidin-4-yl)methoxy]phenyl}propanoic acid] |

Each molecule was assayed on H929 cells (assay: In vitro cytotoxicity (MTT) on H929 multiple myeloma tumour line). Details: Homo sapiens, NCI-H929, exposed 48 hours, Microculture Tetrazolium Assay.
Type: cell-based
Protocol: The cytotoxicity studies were carried out on the H929 multiple myeloma tumour line.
The cells are distributed onto microplates and exposed to the test compounds for 48 hours.
The cell viability is then quantified by a colorimetric assay, the Microculture Tetrazolium Assay (Cancer Res., 1987, 47, 939-942).

| Molecule | IC50 |
| --- | --- |
| Cc1c(-c2c(-c3ccc(F)cc3)sc3ncnc(OC(Cc4ccccc4OCc4ccnc(-c5ccc(COC6(C)OC7OC(CO)C(O)C(O)C7O6)cc5)n4)C(=O)O)c23)ccc(OCCN2CCN(C)CC2)c1Cl [Example 22, 1,2-O-[(1R)-1-({4-[4-({2-[(2R)-2-carboxy-2-{[(5Sa)-5-{3-chloro-2-methyl-4-[2-(4-methylpiperazin-1-yl)ethoxy]phenyl}-6-(4-fluorophenyl)thieno[2,3-d]pyrimidin-4-yl]oxy}ethyl]phenoxy}methyl)pyrimidin-2-yl]benzyl}oxy)ethylidene]-β-D-mannopyranose] | 5.97 nM |
| Cc1c(-c2c(-c3ccc(F)cc3)sc3ncnc(OC(Cc4ccccc4OCc4ccnc(-c5ccccc5COCC(O)CO)n4)C(=O)O)c23)ccc(OCCN2CCN(C)CC2)c1Cl [Example 27, (2R)-2-{[(5Sa)-5-{3-chloro-2-methyl-4-[2-(4-methylpiperazin-1-yl)ethoxy]phenyl}-6-(4-fluorophenyl)thieno[2,3-d]pyrimidin-4-yl]oxy}-3-{2-[(2-{2-[(2,3-dihydroxypropoxy)methyl]phenyl}pyrimidin-4-yl)methoxy]phenyl}propanoic acid] | 13.9 nM |
| Cc1c(-c2c(-c3ccc(F)cc3)sc3ncnc(OC(Cc4ccccc4OCc4ccnc(-c5cccc(COC(=O)N6CCOCCOCCOCCOCCOCC6)c5)n4)C(=O)O)c23)ccc(OCCN2CCN(C)CC2)c1Cl [Example 46, (2R)-2-{[(5Sa)-5-{3-chloro-2-methyl-4-[2-(4-methylpiperazin-1-yl)ethoxy]phenyl}-6-(4-fluorophenyl)thieno[2,3-d]pyrimidin-4-yl]oxy}-3-(2-{[2-(3-{[(1,4,7,10,13-pentaoxa-16-azacyclooctadecan-16-ylcarbonyl)oxy]methyl}phenyl)pyrimidin-4-yl]methoxy}phenyl)propanoic acid] | 23.4 nM |

Source: US10322131B2, “Hydroxyacid derivatives, a process for their preparation and pharmaceutical compositions containing them” (LES LABORATOIRES SERVIER, priority 2015, dated 2019)
